The values that follow come from patent publication US10316017B2, “COT modulators and methods of use thereof” (Gilead Sciences, Inc., priority 2015, dated 2019).

Structures are written as SMILES. pEC50, pIC50: −log10 of the molar value. Where two headings read alike, the source gives them in different places.

The target of test [1] is T1, human Cot catalytic domain (30-397 amino acids) (Homo sapiens, UniProt P41279).
T1 construct: Purified recombinant human Cot catalytic domain (30-397 amino acids) was purchased from Cama Biosciences; purchased Cama Biosciences (so in the source)
T1 sequence (P41279 30-397): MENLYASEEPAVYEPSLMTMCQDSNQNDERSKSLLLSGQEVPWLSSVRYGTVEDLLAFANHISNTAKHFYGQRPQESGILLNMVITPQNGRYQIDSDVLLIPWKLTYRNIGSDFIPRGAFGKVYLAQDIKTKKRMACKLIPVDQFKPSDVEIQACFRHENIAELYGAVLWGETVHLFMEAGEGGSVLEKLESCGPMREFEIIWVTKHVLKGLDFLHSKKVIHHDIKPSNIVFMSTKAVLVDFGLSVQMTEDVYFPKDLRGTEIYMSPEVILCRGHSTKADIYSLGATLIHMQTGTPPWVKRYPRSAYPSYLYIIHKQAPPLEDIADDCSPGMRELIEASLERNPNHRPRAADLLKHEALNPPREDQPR
In words: High Throughput Cot Biochemical Assay (KinEASE TR-FRET). As to conditions: read-out: IC50 HTRF. The method, boiled down:
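TR-FRET readout: Eu-labeled phospho-specific antibody binds XL665-tagged STK3 peptide after phosphorylation by Cot (aa 30-397, 5 nM). Conditions: 400 μM ATP, 1 μM peptide, MOPS pH 7.0 buffer with MgOAc, DTT, BSA, NP-40, glycerol; 0.1% DMSO.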

In test [2] the test system is TNFα production in LPS-stimulated human monocytes. As to the kind of experiment: Cot Monocyte TNFα Cell Based Assay. Conditions: Homo sapiens, Monocyte, read-out: EC50 TNF. The gist of the method:
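TR-FRET read-out of total secreted TNFα, normalized as % control (unstimulated = 0%, LPS-stimulated = 100%). Cells (5,000/well) were exposed to compound 1 h at 37 °C, then to 50 pg/ml LPS for a further 4 h.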

[3] abbreviates: Cot biochemical HTRF (KinEASE TR-FRET) assay.
Setting [4] is: TNFα in LPS-stimulated human monocytes.
Setting [5] is: Cot KinEASE TR-FRET, 400 μM ATP.
[6] abbreviates: LPS-stimulated human monocytes, TNFα TR-FRET.
Where [7] appears, read: Cot KinEASE TR-FRET (HTRF) biochemical assay, 400 μM ATP.

For the compound `CCN1CCC(n2cc([C@@H](Nc3cc(Cl)c4ncc(C#N)c(Nc5ccc(F)c(Cl)c5)c4c3)c3ccc(Cl)cc3)nn2)CC1` [Example 858, (S)-8-chloro-4-((3-chloro-4-fluorophenyl)amino)-6-(((4-chlorophenyl)(1-(1-ethylpiperidin-4-yl)-1H-1,2,3-triazol-4-yl)methyl)amino)quinoline-3-carbonitrile], the pIC50 in test [1] (setting [3]) was 8.10. For the same compound, in test [2] (setting [4]), the pEC50 was 7.00.
`Cc1c(C#N)cccc1[C@H](Nc1cc(C#N)c2ncc(C#N)c(NCC(C)(C)C)c2c1)c1cn([C@@H](C)CF)nn1` [Example 1150, 6-(((S)-(3-cyano-2-methylphenyl)(1-((S)-1-fluoropropan-2-yl)-1H-1,2,3-triazol-4-yl)methyl)amino)-4-(neopentylamino)quinoline-3,8-dicarbonitrile]: in test [1] (setting [5]), the pIC50 is 8.70. Further, the pEC50 in test [2] (setting [6]) is 7.57.
Consider `[2H]C(Nc1cc(Cl)c2ncc(C#N)c(NC3CCC4CC43)c2c1)(c1ccc(F)cc1)c1cn(C2CC2)nn1` (stereo in doubt) [Example 251, 4-(bicyclo[3.1.0]hexan-2-ylamino)-8-chloro-6-(((S)-(1-cyclopropyl-1H-1,2,3-triazol-4-yl)(4-fluorophenyl)methyl-d)amino)quinoline-3-carbonitrile], for which, in test [1] (setting [7]), the pIC50 is 6.98. Further, the pEC50 in test [2] (setting [4]) is 5.89.
For `[2H][C@@](Nc1cc(C(C)=O)c2ncc(C#N)c(Nc3cccc(Cl)c3)c2c1)(c1cn(C2CC2)nn1)c1ccccc1Cl` [Example 85, (S)-8-acetyl-6-(((2-chlorophenyl)(1-cyclopropyl-1H-1,2,3-triazol-4-yl)methyl-d)amino)-4-((3-chlorophenyl)amino)quinoline-3-carbonitrile] the same measures were 7.38 and 6.06.
Taken in the same sequence, the figures for `N#Cc1cnc2c(Cl)cc(N[C@@H](c3ccc(F)cc3)c3c[nH]nn3)cc2c1Nc1ccc(F)c(F)c1` [Example 368, (S)-8-chloro-4-((3,4-difluorophenyl)amino)-6-(((4-fluorophenyl)(1H-1,2,3-triazol-4-yl)methyl)amino)quinoline-3-carbonitrile] were 7.30 and 5.95.
Take `[2H]C(Nc1cc(Cl)c2ncc(C#N)c(NCC(C)(C)C)c2c1)(c1ccc(F)cc1)c1nnnn1Cc1ccc(OC)cc1` (stereo not shown) [Example 263, 8-chloro-6-(((4-fluorophenyl) (1-(4-methoxybenzyl)-1H-tetrazol-5-yl)methyl-d)amino)-4-(neopentylamino)quinoline-3-carbonitrile]: the pIC50 in test [1] (setting [7]) is 6.13. Moreover, the pEC50 in test [2] (setting [4]) is under 5.00.
As to `Cc1c(-c2cccnc2)cccc1[C@H](Nc1cc(C#N)c2ncc(C#N)c(NCC(C)(C)C)c2c1)c1cn(C2(C(F)(F)F)CC2)nn1` [Example 1136, (S)-6-(((2-methyl-3-(pyridin-3-yl)phenyl)(1-(1-(trifluoromethyl)cyclopropyl)-1H-1,2,3-triazol-4-yl)methyl)amino)-4-(neopentylamino)quinoline-3,8-dicarbonitrile], in test [1] (setting [5]), the pIC50 was 8.40. Further, the pEC50 in test [2] (setting [6]) is 6.89.
With `COc1[nH]nnc1C(Nc1cc(Cl)c2ncc(C#N)c(Nc3cnc(F)c(F)c3)c2c1)c1ccc(F)cc1` (stereo not shown) [Example 435, 8-chloro-4-((5,6-difluoropyridin-3-yl)amino)-6-(((4-fluorophenyl)(5-methoxy-1H-1,2,3-triazol-4-yl)methyl)amino)quinoline-3-carbonitrile], the pIC50 in test [1] (setting [3]) is 5.10. For the same compound, the pEC50 in test [2] (setting [4]) is under 5.00.
As to `[2H][C@](Nc1cc(Cl)c2ncc(C#N)c(NC3(C4CC4)CC3)c2c1)(c1ccc(F)cc1)c1cn(C2CC2)nn1` [Example 135, (S)-4-([1,1'-bi(cyclopropan)]-1-ylamino)-8-chloro-6-(((1-cyclopropyl-1H-1,2,3-triazol-4-yl)(4-fluorophenyl)methyl-d)amino)quinoline-3-carbonitrile], the pIC50 in test [1] (setting [7]) was 6.02. For the same compound, in test [2] (setting [4]), the pEC50 is 5.12.
On to `CNc1cccc([C@H](Nc2cc(Cl)c3ncc(C#N)c(Nc4ccc(F)c(Cl)c4)c3c2)c2cn(C3CCN(C(C)(C)C)CC3)nn2)c1` [Example 620, (S)-6-(((1-(1-(tert-butyl)piperidin-4-yl)-1H-1,2,3-triazol-4-yl)(3-(methylamino)phenyl)methyl)amino)-8-chloro-4-((3-chloro-4-fluorophenyl)amino)quinoline-3-carbonitrile], for which, in test [1] (setting [3]), the pIC50 is 8.22. Further, the pEC50 in test [2] (setting [4]) was 7.02.
For the compound `CC[C@@H](Nc1c(C#N)cnc2c(Cl)cc(N[C@@H](c3ccc(F)cc3)c3cn(C4CCN(C(C)(C)C)CC4)nn3)cc12)c1ccccc1` [Example 538, 6-(((S)-(1-(1-(tert-butyl)piperidin-4-yl)-1H-1,2,3-triazol-4-yl)(4-fluorophenyl)methyl)amino)-8-chloro-4-(((R)-1-phenylpropyl)amino) quinoline-3-carbonitrile], the pIC50 in test [1] (setting [3]) was 8.52. The pEC50 in test [2] (setting [4]) is 7.24.
As to `[2H][C@](Nc1cc(Cl)c2ncc(C#N)c(N[C@H](CC)c3cccc(C)c3)c2c1)(c1ccc(F)cc1)c1cn(C2CC2)nn1` [Example 281, 8-chloro-6-(((S)-(1-cyclopropyl-1H-1,2,3-triazol-4-yl)(4-fluorophenyl)methyl-d)amino)-4-(((R)-1-(m-tolyl)propyl)amino)quinoline-3-carbonitrile], in test [1] (setting [7]), the pIC50 is 7.17. In addition, in test [2] (setting [4]), the negative-log EC50 (pEC50) is 5.98.
With `CC(C)(C)N1CCC(n2cc([C@@H](Nc3cc(Cl)c4ncc(C#N)c(Nc5cccc(Cl)c5F)c4c3)c3ccccc3)nn2)CC1` [Example 628, (S)-6-(((1-(1-(tert-butyl)piperidin-4-yl)-1H-1,2,3-triazol-4-yl)(phenyl)methyl)amino)-8-chloro-4-((3-chloro-2-fluorophenyl)amino)quinoline-3-carbonitrile], the pIC50 in test [1] (setting [3]) was 8.15. Further, in test [2] (setting [4]), the pEC50 was 6.96.
With `CC(=O)N(C)c1cccc([C@H](Nc2cc(C#N)c3ncc(C#N)c(NCC(C)(C)C)c3c2)c2cn(C3CC3)nn2)c1` [Compound 9], in test [1] (setting [7]), the negative-log IC50 (pIC50) is 8.70. Moreover, the pEC50 in test [2] (setting [4]) is 6.76.
Consider `CC(C)(C)N1CCC(n2cc([C@@H](Nc3cc(Cl)c4ncc(C#N)c(Nc5ccc(Cl)c(F)c5)c4c3)c3ccc(Cl)cc3)nn2)CC1` [Example 755, (S)-6-(((1-(1-(tert-butyl)piperidin-4-yl)-1H-1,2,3-triazol-4-yl)(4-chlorophenyl)methyl)amino)-8-chloro-4-((4-chloro-3-fluorophenyl)amino)quinoline-3-carbonitrile], for which the pIC50 in test [1] (setting [3]) is 6.70. The pEC50 in test [2] (setting [4]) was 5.50.
`CCN1CCC(n2cc([C@@H](Nc3cc(Cl)c4ncc(C#N)c(N[C@H](CCC#N)c5ccccc5)c4c3)c3ccc(Cl)cc3)nn2)CC1` [Example 955, 8-chloro-6-(((S)-(4-chlorophenyl)(1-(1-ethylpiperidin-4-yl)-1H-1,2,3-triazol-4-yl)methyl)amino)-4-(((R)-3-cyano-1-phenylpropyl)amino)quinoline-3-carbonitrile]: the pIC50 in test [1] (setting [5]) was 8.70. In test [2] (setting [6]), the pEC50 was 7.51.
Take `N#Cc1cnc2c(Cl)cc(N[C@@H](c3ccc(F)cc3)c3c[nH]nn3)cc2c1Nc1ccc(Cl)c(Cl)c1F` [Example 449, (S)-8-chloro-4-((3,4-dichloro-2-fluorophenyl)amino)-6-(((4-fluorophenyl)(1H-1,2,3-triazol-4-yl)methyl)amino)quinoline-3-carbonitrile]: the pIC50 in test [1] (setting [3]) is 6.79. Moreover, in test [2] (setting [4]), the pEC50 was 6.08.
